Reference: patent publication US20250352559A1, “Transdermal Delivery Composition for Delivery of at least one Glucose Controlling Agent, and Method of Delivering at least one Glucose Controlling Agent” (Skinvisible Pharmaceuticals, Inc., priority 2024, published 2025)

Tests used:
3T3-LI preadipocytes = settings: in vitro; cited from earlier work
[1] = test system: animal models of diet-induced obesity; settings: cited from earlier work
[2] = preclinical studies, therapeutic doses; cited from earlier work
[3] = cited from earlier work
[4] = Franz Cell study, rate of diffusion across a cellulose membrane; format: in vitro ADME; settings: after 6 hours, transdermal formulation of 1% THCV
Experimental: A transdermal formulation of 1% THCV was prepared according to Table 1. The THCV formulation was subjected to a Franz Cell study, measuring the rate of diffusion across a cellulose membrane. As illustrated by the results, after 6 hours, 6.08 mg of THCV diffused across the cellulose membrane. The total dose of THCV applied to the membrane was 11.63 mg, and this calculates to a delivered dose of 52.3% of the THCV which is unexpected.

Molecule | adipocyte differentiation and lipid accumulation (3T3-LI preadipocytes) | body weight gain, adipose tissue mass, glucose tolerance and insulin sensitivity [1] | safety profile and tolerability [2] | further results
CCCCCCc1nc(-c2ccc(Cl)cc2)n(-c2ccc(Cl)cc2Cl)n1 [LH-21] | inhibit adipocyte differentiation and lipid accumulation | reduce body weight gain, decrease adipose tissue mass, and improve glucose tolerance and insulin sensitivity | favorable safety profiles and are well-tolerated at therapeutic doses | 
CCCCCc1cc(O)cc(O)c1 [Olivetol] | inhibit adipocyte differentiation and lipid accumulation | reduce body weight gain, decrease adipose tissue mass, and improve glucose tolerance and insulin sensitivity | favorable safety profiles and are well-tolerated at therapeutic doses | 
Cc1c(C(=O)NN2CCCCC2)nn(-c2ccc(Cl)cc2Cl)c1-c1ccc(Cl)cc1 [rimonabant] |  | reduce body weight gain, decrease adipose tissue mass, and improve glucose tolerance and insulin sensitivity |  | clinical safety ([3]; marketed use, later withdrawn): increased risk of psychiatric adverse effects
C[C@H](NC(=O)C(C)(C)Oc1ccc(C(F)(F)F)cn1)[C@@H](Cc1ccc(Cl)cc1)c1cccc(C#N)c1 [taranabant] |  | reduce body weight gain, decrease adipose tissue mass, and improve glucose tolerance and insulin sensitivity |  | body weight and metabolic parameters in clinical trials ([3]; clinical trials for the treatment of obesity): promising results in reducing body weight and improving metabolic parameters
Tetrahydrocannabivarin [THCV] |  |  |  | delivered dose of the THCV ([4]; 6.08 mg of 11.63 mg applied): 52.3%; THCV diffused across the cellulose membrane ([4]; total dose applied 11.63 mg): 6.08 mg
